By pIC50 is commonly meant the negative decadic logarithm of the IC50, by convention in mol/L. For orientation: IC50 means the concentration that inhibits the measured activity by half.

This passage reports IC50 results from PubChem BioAssay AID488890 (Southern Research Specialized Biocontainment Screening …, 2010).

pIC50: −log10 of the molar value. Inconclusive results are not listed. Active and inactive are the calls of the source. The rule behind the calls is not given here.

The test relates to Mycobacterium tuberculosis non-replicating, growth inhibition. As to the kind of experiment: growth inhibition of non-replicating M. tuberculosis (AID 488890).
For `CC1=NN(C(=O)COc2ccccc2C)C(O)(c2ccc(Cl)cc2)C1` (stereo unspecified), the pIC50 was 5.85.
Take `Cc1ccc(C(C)C)c(OCC(=O)OCc2c(C)noc2C)c1`: the pIC50 was 5.45.
In the case of `Cc1ccc(NC(=O)CO/N=C/c2ccccc2C)c(C)c1`, the IC50 is 13 µM (inactive).
Turning to `O=C(NN=C(Cc1ccccc1)Cc1ccccc1)c1ccncc1`, the pIC50 was 6.46.
For the molecule `CCN(CC)c1ccc(NC2CC(=O)N(CCc3ccc(OC)cc3)C2=O)cc1` (stereo unspecified), the IC50 is 25.6 µM (inactive).
Turning to `COc1cc(/C=C/c2ccc3c([N+](=O)[O-])cccc3n2)ccc1OCC(=O)O`, the pIC50 was 5.75.
Still for that read-out and setting: with `Cc1ccc(S(=O)(=O)Nc2cccc3ncccc23)s1` the figure was 5.27.
For the molecule `O=C(COC(=O)c1ccc(O)cc1O)c1ccc2c(c1)OCO2`, the IC50 was 25.9 µM (inactive).
For the molecule `O=C(N/N=C/c1ccc[nH]1)c1ccc2c(c1)OCO2`, the pIC50 was 5.05.
On the same count and under the same terms, the result for `Cc1c([N+](=O)[O-])cnc(Sc2ccccc2)c1[N+](=O)[O-]` reads 5.19.
The same measure, in the same setting: with `O=c1oc2ccccc2c(Nc2ccccc2O)c1[N+](=O)[O-]` the figure was 5.07; with `CCNc1nc(NC(C)(C)C)nc(N2CCCCC2)n1`, 5.01.
As for `Cc1ccc(-c2nnc(NC3CCCC3)s2)cc1`, the IC50 is 23.8 µM (inactive).
Regarding `COc1ccc(CCNc2nc(-c3ccccn3)cs2)cc1OC`, the pIC50 was 5.08.
Still for that read-out and setting: with `S=C1CN=C(c2ccccc2)c2cc(Cl)ccc2N1` the figure was 5.07; with `O=C(Nc1ccc(Cl)cn1)C1COc2ccccc2O1` (stereo unspecified), 5.48.
As for `O=C(c1cc(F)ccc1F)C1CCCN(Cc2ccc3nonc3c2)C1` (stereo unspecified), the IC50 was 12.7 µM (inactive).
With `N/C(=N\OC(=O)c1cccs1)c1ccccc1`, the IC50 was 24 µM (inactive).
For the molecule `COc1ccc(/C=N/Nc2cc(C)nc(-n3nc(C)cc3C)n2)cc1`, the pIC50 was 5.49.
Same read-out and setting: the result for `O=C(COc1ccc(Br)cc1)Nc1ccc([N+](=O)[O-])cn1` reads 5.19; that for `C/C(=N\NC(=O)c1ccc(CN2CCc3ccccc3C2)cc1)c1ccccc1O`, 6.15.
Turning to `CC(Oc1ccc(Cl)cc1)C(=O)NNC(=S)NC(=O)c1ccco1` (stereo unspecified), the IC50 is 22.3 µM (inactive).
Take `CCOC(=O)COn1c2c(c3c4no[n+]([O-])c4ccc31)CCCC2`: the pIC50 is 5.95.
For `O=C(CCSc1nnc(-c2ccncc2)o1)Nc1ccc(Cl)cc1`, the IC50 is 14.7 µM (inactive).
`CN(C)S(=O)(=O)c1ccc(C(=O)Oc2ccccc2)cc1`: the negative-log IC50 (pIC50) was 5.62.
Regarding `N#CC(C(=O)Nc1ccccc1)=C1Nc2ccccc2N1`, the IC50 is 37.8 µM (inactive).
Turning to `CC1COC(=O)C(NNc2ccc(Cl)c(Cl)c2)=N1` (stereo unspecified), the pIC50 was 5.06.
Turning to `Cc1cccc(NC(=O)c2ccc(OC3CSC3)cc2)c1`, the IC50 was 28.7 µM (inactive).
The same measure, in the same setting: with `CCOC(=O)c1c(C)nc2c3ccccc3ccn12` the figure was 13.3 µM (inactive); with `O=C(Nc1nnc(C2CC2)o1)c1ccc(S(=O)(=O)N2CCCCC2)cc1`, 29.8 µM (inactive).
On the same count and under the same terms, with `O=C(CNc1cccc2ccccc12)N/N=C/c1ccc([N+](=O)[O-])o1` the figure was 12.1 µM (inactive).
As for `O=C(c1ccc(-c2ccc([N+](=O)[O-])cc2)o1)N1CCCCCCC1`, the IC50 is 11.6 µM (inactive).
On the same count and under the same terms, the result for `CCCCOC(=O)c1ccc(OC(=O)c2cccnc2)cc1` reads 13.4 µM (inactive).
With `Cc1cc(N/N=C/c2ccccc2[N+](=O)[O-])nc(-n2nc(C)cc2C)n1`, the pIC50 was 5.71.
As to `COC(=O)c1cc(-c2ccc(OC)cc2)on1`, the pIC50 was 5.81.
In the case of `O=C(Nc1ccc([N+](=O)[O-])cc1)C1COc2ccccc2O1` (stereo unspecified), the IC50 was 10.2 µM (inactive).
For `Cc1ccc(-c2noc(CCCC(=O)Nc3cccnc3)n2)cc1`, the pIC50 was 5.12.
On to `CCOC(=O)CN1NC2(CCC(C)CC2)NC1=S` (stereo unspecified), for which the IC50 was 15.2 µM (inactive).
In the case of `Cc1nnc(N/N=C/c2ccc(-c3ccc(Br)cc3)o2)n1N`, the pIC50 is 5.46.
For `O=C(NNc1ccc([N+](=O)[O-])cc1)C1CC2CCCC(C1)C2=O` (stereo unspecified), the IC50 was 16.2 µM (inactive).
For the molecule `COc1cccc(OCCNC(=O)c2cc([N+](=O)[O-])cc([N+](=O)[O-])c2)c1`, the pIC50 is 6.31.
Turning to `CCOC(=O)c1csc(COc2ccc(OC)cc2)n1`, the pIC50 was 5.11.
`CN1C(=O)NC(=O)/C(=C/c2ccc([N+](=O)[O-])s2)C1=O`: the IC50 is 10.3 µM (inactive).
For the molecule `CCOC(=O)c1c(C)nc2cc(C)ccn12`, the pIC50 was 5.23.
For the molecule `Cc1cc(S(=O)(=O)c2ccc([N+](=O)[O-])cn2)ccc1Br`, the pIC50 was 6.82.
The same measure, in the same setting: with `COc1cc(CNC2CCCC2)cc(Cl)c1OCc1ccccc1Cl` the figure was 5.02.
Same read-out and setting: the result for `Cc1cccc(N2CCN(C(=O)Cn3sc4nc(C)cc(C)c4c3=O)CC2C)c1` (stereo unspecified) reads 5.57.
Regarding `Cn1c(=O)c(C(=O)Nc2ccccn2)c(O)c2ccccc21`, the IC50 is 13.2 µM (inactive).
Still for that read-out and setting: the result for `COc1ccc(NCC(=O)N2CCCC2)cc1Cl` reads 10.8 µM (inactive).
Take `CCn1c(-c2ccco2)nc2ccccc21`: the pIC50 is 5.05.
For the molecule `CCc1cccc(OCCCn2ccnc2)c1`, the IC50 is 18.7 µM (inactive).
Still for that read-out and setting: the result for `C=CCNc1nc(C(=O)OCC(=O)c2cccc(Br)c2)cs1` reads 20.8 µM (inactive).
For the molecule `CC(=O)Oc1c(C)cc(Cl)cc1C(=O)Nc1ccc([N+](=O)[O-])cc1Cl`, the pIC50 was 5.57.
Turning to `NNC(=O)COc1cccc(Oc2ccccc2)c1`, the IC50 is 25.2 µM (inactive).
For `CC(C)COc1ccc(C(=O)CCN2CCCCC2)cc1`, the pIC50 was 5.01.
Take `Cc1ccc(C(=O)COC(=O)c2cccs2)cc1`: the IC50 was 11 µM (inactive).
Turning to `CC(C)c1nnc(NC(=O)c2cc3cc(Br)ccc3oc2=O)s1`, the pIC50 is 5.36.
Still for that read-out and setting: the result for `CC(Cc1cccs1)NC(=O)c1cccc(Cl)c1` (stereo unspecified) reads 5.09.
Still for that read-out and setting: with `O=C(N/N=C/c1ccccn1)c1cccc([N+](=O)[O-])c1` the figure was 5.41.
The same measure, in the same setting: the result for `Cc1ccc(/C(O)=C/c2nc3ccccc3oc2=O)cc1` reads 5.32.
For the molecule `COc1cc(C(=O)ON=C2C=C(C)C(=O)C(C)=C2)cc(OC)c1OC`, the IC50 is 48.6 µM (inactive).
Still for that read-out and setting: with `COc1ccc(-c2nnc(NC(=O)C3=COCCO3)o2)cc1` the figure was 27.1 µM (inactive).
In the case of `O=C1N=c2ccccc2=C1c1c(O)n(-c2cccc(F)c2)[nH]c1=O`, the pIC50 was 5.16.
Same read-out and setting: the result for `CC1=CC(=O)NP(=O)(Oc2ccc3ccccc3c2)N1` (stereo unspecified) reads 5.10.
`CC(/C=C\C=C\c1ccccc1)=N\NC(=O)c1cncc(Br)c1`: the IC50 is 31.2 µM (inactive).
Consider `COc1ccc(NC(=O)CCCN2C(=O)/C(=C\c3ccco3)SC2=S)cc1`, for which the pIC50 was 5.10.
Take `COc1cc(OC)cc(C(=O)NNC(=O)c2ccccn2)c1`: the IC50 is 11.6 µM (inactive).
Still for that read-out and setting: with `CC(C)c1ccc(OCC(=O)NNC(=O)c2cnccn2)cc1` the figure was 11.9 µM (inactive).
Regarding `O=C(N/N=C/c1ccc([N+](=O)[O-])s1)c1ccncc1`, the pIC50 was 5.75.
On the same count and under the same terms, with `Cc1cccc(NCc2nnc(-c3ccccc3)o2)c1C` the figure was 5.31; with `O=C(CC(=O)c1cc(Cl)ccc1O)c1ccccc1`, 5.58.
Take `CCOC(=O)c1c(-c2ccccc2)csc1NC(=O)CCN1CCOCC1`: the IC50 is 24.4 µM (inactive).
Turning to `CCN1CCN(c2ccc(S(=O)(=O)N3CCCCC3)cc2NC(=O)c2ccc([N+](=O)[O-])s2)CC1`, the pIC50 was 5.13.
Same read-out and setting: the result for `Cc1cccc(NC(=O)c2cc3ccccc3o2)c1` reads 5.49.
In the case of `O=C(Oc1ccc(/C=N/O)cc1)c1ccccc1Cl`, the IC50 was 12.4 µM (inactive).
Still for that read-out and setting: with `Cc1cc(Cl)ccc1OCCCC(=O)NO` the figure was 14.6 µM (inactive).
As for `CC(C)Cn1c([N+](=O)[O-])nc2c1c(=O)[nH]c(=O)n2C`, the pIC50 was 5.24.
On the same count and under the same terms, with `CCc1ccc(OCC(=O)NNC(=O)c2cnccn2)c(Br)c1` the figure was 5.33; with `O=c1cc(-c2ccccc2Cl)oc2c([N+](=O)[O-])c(O)cc(O)c12`, 5.30.
Consider `Clc1cccc(/C=N\Nc2nccs2)c1`, for which the IC50 is 12 µM (inactive).
On to `O=C(Nc1nc2ccc(F)cc2s1)c1ccccn1`, for which the negative logarithm of the IC50 (pIC50) was 6.96.
On to `O=C(NC(=S)N1CCN(Cc2ccc3c(c2)OCO3)CC1)c1ccc(Cl)cc1`, for which the IC50 is 33.4 µM (inactive).
In the case of `CCOc1cc(CNCCO)cc(Br)c1OCc1ccc(Cl)cc1`, the pIC50 is 5.25.
For the molecule `Cc1ccc(NC(=O)COCC(=O)Nc2ccc(C)cc2)cc1`, the IC50 was 14.6 µM (inactive).
As to `CC1=NN(C(=O)c2ccc(Br)cc2)C(O)(c2ccccc2)C1` (stereo unspecified), the pIC50 was 6.33.
With `CC(C)n1c(=S)[nH]c2ccccc2c1=O`, the IC50 is 14.2 µM (inactive).
Regarding `CCOC(=O)CNCCC(=O)c1ccc(Br)cc1`, the pIC50 is 5.36.
`CC(=O)N1CCN(C(=O)CC2OC(=O)c3ccccc32)CC1` (stereo unspecified): the IC50 was 18.9 µM (inactive).
Regarding `CSCCOC(=O)COc1ccc(/C=N/NC(=O)c2c(Cl)cnn2C)cc1`, the pIC50 is 5.05.
`COc1ccc(CCOC(=O)c2ccc(N)c([N+](=O)[O-])c2)cc1`: the IC50 is 12.3 µM (inactive).
`COc1ccc(CN=C(C#N)C2=C(O)c3ccccc3C2=O)cc1`: the pIC50 is 5.07.
Take `Cc1ccc2c(c1)c1c(n2CC(O)CNC2CCCCC2)CCCC1` (stereo unspecified): the IC50 is 16.7 µM (inactive).
As for `CN(C)CCCNc1cc(C(C)(C)C)nc2c(-c3ccccc3)cnn12`, the IC50 was 18.6 µM (inactive).
`N#Cc1nc(-c2cccs2)oc1NCCc1ccccc1`: the pIC50 was 5.32.
Same read-out and setting: the result for `CC(C)(C)c1cc(CN2CCC(O)CC2)cc(C(C)(C)C)c1O` reads 5.16.
In the case of `CC(/C=C/c1ccc2c(c1)OCO2)=N/NC(=O)C1COc2ccccc2O1` (stereo unspecified), the pIC50 was 5.34.
Consider `Cc1ccc(C(=O)Nc2nnc(-c3ccncc3)o2)cc1`, for which the IC50 was 23.3 µM (inactive).
Consider `CCCn1nnnc1NC(=O)c1ccc2ccccc2c1`, for which the pIC50 is 5.46.
On the same count and under the same terms, with `Cc1cc(NCc2ccccn2)n2ncc(-c3ccccc3)c2n1` the figure was 5.71.
The same measure, in the same setting: the result for `CC(=O)n1cc(/C=C2/N=C(c3ccccc3)OC2=O)c2ccccc21` reads 5.59.
Turning to `CCOC(=O)Cc1csc(NC(=O)COc2ccc3c(c2)CCC3)n1`, the IC50 is 13.5 µM (inactive).
